Assay results reported in PubChem BioAssay (NCI).
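A five-concentration, 48-hour dose response in 96-well plates underlies each endpoint, interpolated linearly between surrounding concentrations. TGI: concentration producing complete growth inhibition.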

Assays:
Assay in all cases: growth of human tumour cells (NCI), 48 h
SK-MEL-5 melanoma = tested on: SK-MEL-5 melanoma
ACHN renal = tested on: ACHN renal
NCI-H522 lung = tested on: NCI-H522 lung
OVCAR-5 ovarian = tested on: OVCAR-5 ovarian
RXF 393 renal = tested on: RXF 393 renal
UACC-62 melanoma = tested on: UACC-62 melanoma
M14 melanoma = tested on: M14 melanoma
SK-MEL-28 melanoma = tested on: SK-MEL-28 melanoma
NCI-H23 lung = tested on: NCI-H23 lung
A549 NSCLC = tested on: A549 NSCLC

Structure (SMILES)	TGI (SK-MEL-5 melanoma) [µM]	TGI (ACHN renal) [µM]	TGI (NCI-H522 lung) [µM]	TGI (OVCAR-5 ovarian) [µM]	TGI (RXF 393 renal) [µM]	TGI (UACC-62 melanoma) [µM]	TGI (M14 melanoma) [µM]	TGI (SK-MEL-28 melanoma) [µM]	TGI (NCI-H23 lung) [µM]	TGI (A549 NSCLC) [µM]
COc1cc(/C=C2\CCc3cc(OC)c(OC)cc3C2=O)cc(OC)c1	18.1	> 100	> 42.3	99.3	> 42.4	18.4	> 100	> 100	> 86.7	> 100
CCCCCC(/C=N/NC(N)=S)C(O)(C(F)(F)F)C(F)(F)F (stereo not drawn)	> 10	> 10	> 10	> 10	> 10	> 10	> 10	> 10	> 10	> 10
OCC1CCCCN1Cc1nc2ccc(Cl)cc2[nH]1 (stereo not drawn)	> 100	> 100	> 100	> 100	> 100	> 100	> 100	> 100	> 100	> 100
c1ccc(-c2cc(-c3cc(-c4ccccc4)n[nH]3)[nH]n2)cc1	> 100	> 100	> 100	> 100	> 100	> 100	> 100	–	> 100	> 100
COC(=O)[C@H]1ON2O[C@@H](O[C@H]3CCCC[C@@H]3C(C)(C)c3ccccc3)C[C@@H]3CC[C@H]1[C@@]32C	> 100	> 100	> 100	> 100	> 100	> 100	> 100	–	> 100	> 100
O=[N+]([O-])C(=C/C1CCCCC1)/C(=C\C1CCCCC1)[N+](=O)[O-]	23.1	10.7	4.3	38.8	3.93	17.6	22.3	24.7	10.1	49
CCOC(=O)c1ccc(Nc2nc3ccc(C(F)(F)F)cc3nc2-c2ccccc2)cc1	> 100	> 100	> 100	> 100	> 100	74.5	> 100	> 100	> 100	> 100
Cc1cc2nc3c(C(O)CO)nn(-c4ccccc4)c3nc2cc1C (stereo not drawn)	> 100	32.1	68	44.9	43.6	–	> 100	42	54.7	48.5
CCOC(=O)/C=C/[C@H](O[Si](c1ccccc1)(c1ccccc1)c1ccccc1)C(C)(C)C	> 31.6	> 31.6	> 31.6	–	> 31.6	> 31.6	> 100	–	> 31.6	> 31.6
CNC=O	> 10000	> 10000	> 10000	> 10000	> 10000	> 9810	> 10000	> 10000	> 10000	> 10000
O/N=C1\CC2(N3CCOCC3)CCC1(Cc1ccccc1)CC2	> 100	63.4	> 100	> 100	42	–	> 100	> 100	> 100	> 100
C/C=C/[C@@H]1O[C@H](CC#C[Si](C)(C)C)[C@@]2(C=O)C(C)=CC[C@H](C(C)C)[C@@H]12	35.2	39.9	4.78	40.2	36.8	32.6	37.2	47.8	49.6	64.5
O=C(c1ccc(Cl)cc1)N(C(=S)N1CCN(c2ccccc2)CC1)c1ccccc1	> 100	> 100	> 100	> 100	> 100	> 100	> 100	> 100	> 100	> 100
COc1ccc2c(-c3ccc(O)cc3)c(Oc3ccccc3)c(=O)oc2c1	> 52	> 85.9	> 100	> 100	> 47.8	> 100	> 100	> 100	> 100	> 43
C=CCC1(O)c2cccc(O)c2C(=O)c2cccc(O)c21 (stereo not drawn)	26.4	69.2	42	> 100	37	–	32	84.7	31.7	88.1
CCCN(CCC)C(=O)Cc1c2n(c3ccccc13)Cc1ccccc1-2	> 100	> 100	> 100	–	> 100	> 100	> 100	> 100	> 100	> 100
c1ccc2c(Cc3c[nH]c4ccccc34)c[nH]c2c1	27.2	> 100	47.9	29.4	33.1	> 100	34.1	> 100	38.3	57
COC(=O)c1cc(C)ccc1CC(Cc1ccccc1C)C(=O)OC (stereo not drawn)	28.4	> 100	74.1	–	77.6	> 100	> 100	> 100	> 100	> 100
O=C(c1ccco1)N1CCN(C(=O)c2ccco2)C1=S	25.1	22.3	19.4	39.8	12	19.1	40.5	22.8	50.3	35.5
CC1(C)OC2CN(C(=O)OCc3ccccc3)C(CO)C2O1 (stereo not drawn)	> 100	> 100	> 100	> 100	> 100	> 100	> 100	> 100	> 100	> 100
CO/N=C1/C(n2[nH]c(=O)n(-c3ccccc3)c2=O)C2C=CC1n1c(=O)n(-c3ccccc3)c(=O)n12 (stereo not drawn)	> 100	–	> 100	> 100	> 100	> 100	> 100	> 100	> 100	> 100
O=[N+]([O-])/C(C(Cl)=C(Cl)Cl)=C(/Sc1ccccc1)N1CCOCC1	11.4	15	9.36	31	3.7	14	9.24	17.6	29.8	41.7

Structure (SMILES)	TGI (SK-MEL-5 melanoma) [µM]	TGI (ACHN renal) [µM]	TGI (NCI-H522 lung) [µM]	TGI (OVCAR-5 ovarian) [µM]	TGI (RXF 393 renal) [µM]	TGI (UACC-62 melanoma) [µM]	TGI (M14 melanoma) [µM]	TGI (SK-MEL-28 melanoma) [µM]	TGI (NCI-H23 lung) [µM]	TGI (A549 NSCLC) [µM]
CC(=O)NC1CCC(NC(=O)OC(C)(C)C)C(NC(=O)OC(C)(C)C)C1 (stereo not drawn)	> 100	> 100	> 100	> 100	> 100	> 100	> 100	> 100	> 100	> 100
O=C(CN=C(CN(c1ccccc1)c1ccccc1)Oc1c([N+](=O)[O-])cc([N+](=O)[O-])cc1[N+](=O)[O-])N1CCNCC1	> 100	> 100	> 100	> 100	> 100	> 100	> 100	> 100	> 100	> 100
OCCCN(CCc1ccc(Cl)c(Cl)c1)CCN1CCCC1	–	> 100	54.5	> 100	> 100	31.5	32.9	–	> 100	> 100
C=CC1(CBr)CCC(C(C)(C)Br)O1 (stereo not drawn)	23.2	30.2	7.14	27.9	27.3	22.3	27.7	23.9	19.9	33.9
CCOC(=O)C1(Cc2ccccc2)CCN(C(=O)c2ccccc2)C2C1C2(Cl)Cl (stereo not drawn)	29.5	54.8	42.5	98.4	36.5	27.2	34.6	51.6	77	> 100
CCOC(=O)CC[C@@H](NC(=O)c1ccc(NCc2ccc3nc(OC)c(OC)nc3c2)cc1)C(=O)OCC	27.9	58.2	50.5	> 100	> 58.1	32	32	22.8	> 100	> 100
CCCC(=O)N[C@@H](Cc1cc(I)c(O)c(I)c1)C(=O)NCCCNCCCCNCCCNC(=O)[C@@H](N)CCCN=C(N)N	> 100	> 100	> 100	–	> 100	> 100	> 100	> 100	> 100	> 100
COc1ccc(CN=C2Nc3ccncc3S(=O)(=O)N2c2ccccc2)cc1	47.2	> 100	> 100	> 100	> 100	> 100	> 100	87.6	> 100	> 100
C(/C=N/NC1=NCCN1)=N\NC1=NCCN1	> 100	> 100	> 100	> 100	> 100	> 100	> 100	> 100	> 100	> 100
C/C(=N/NC(=S)N(Cc1ccccn1)Cc1ccccn1)c1cnccn1	> 37.9	2.39	1.56	32.6	17.4	–	> 35.9	> 61.8	11.4	14.5
FC(F)(F)C1(C(F)(F)F)OC(Cl)(Cl)C(Cl)(Cl)O1	> 10	> 10	> 10	> 10	> 10	> 10	> 10	> 10	> 10	> 10
C=C(Br)C(Cl)(CBr)CCC(Br)C(C)(C)Cl (stereo not drawn)	> 10	> 10	> 10	> 10	> 10	> 10	> 10	> 10	> 10	> 10
CC1(C)OC[C@@]2([C@@H]3CC[C@@H](C3)C2(C)C)N1O	> 100	> 100	> 100	> 100	> 100	> 100	> 100	> 100	> 100	> 100
C=C1CC(CNc2cc(Cl)nc(N)n2)C1	> 100	> 100	> 100	> 100	> 100	> 100	–	> 100	> 100	> 100
Cc1ccc(NC(=S)NNC(=O)c2cc(-c3ccccc3)nc3ccccc23)cc1C	34.4	67.6	50.8	76.9	55.5	37	33.8	78.8	48.2	43.7
CC1=NN(C(=O)CC(=O)Nc2cccc(Cl)c2)C(=O)C1N=Nc1ccc(S(=O)(=O)c2ccc(N=NC3C(=O)N(C(=O)CC(=O)Nc4cccc(Cl)c4)N=C3C)cc2)cc1 (stereo not drawn)	> 100	> 100	> 100	> 100	> 100	> 100	> 100	> 100	> 100	> 100
Cc1ccnc2c1c(=O)c1ccccc1n2C	47.2	56.8	65.7	> 100	> 100	41.4	> 100	> 100	> 100	–
CCC(/C=C/c1ccccc1)=N\NC(=S)N/N=C(/C=C/c1ccccc1)CC	> 100	> 100	> 100	–	> 100	> 100	> 100	> 100	> 100	> 100
CC(C)(C)OC(=O)/C=C/C(=O)O/C=C/[N+](=O)[O-]	> 100	> 100	> 100	> 100	> 100	> 100	> 100	–	> 100	> 100
C=CCN1C(=O)/C(=C/c2cccs2)N=C1SC1OC(COC(=O)c2ccccc2)C(OC(=O)c2ccccc2)C1OC(=O)c1ccccc1 (stereo not drawn)	> 100	> 100	28	> 100	> 100	> 100	–	> 100	> 100	–
CC1(C)N=C(N)N=C(N)N1c1ccc(CCCCc2ccc(Cl)cc2Cl)cc1	2.84	16.1	14.3	20.9	20.4	–	14	19.2	11.9	14.7
COc1ccc(S(=O)Cc2cc(OC)ccc2OC)cc1 (stereo not drawn)	–	> 100	> 100	> 100	> 100	> 100	> 100	> 100	> 100	> 100
